Laboratory results from patent US8293786B2 (Alltranz Inc., priority 2007, dated 2012).

Experiments:
human abdominal skin = assay: In vitro human skin permeation and skin disposition, flow-through diffusion cells (Examples 2, 2A, 2B); assay type: in vitro ADME
Procedure: Flow through diffusion cells were used for the permeation studies. HEPES-buffered Hanks' balanced salts containing 40% PEG 400 with gentamicin or 40% aqueous PEG 400 with gentamicin were used for the receiver compartment. Donor solution was comprised of 90:8:2 PG:H2O:IPM solution or gel formulation. […] Drug accumulation in the skin after a 24, 30 or 42 h diffusion experiment was determined as μmol/g wet tissue weight.
The skin samples used in the following experiments were obtained from abdominal reduction surgery and dermatomed to a thickness of approximately 200 μm. The skin samples used herein were frozen at −20° C. for less than six months.
One (1) L of receiver fluid was prepared by measuring 1 L of nanopure water into a graduated cylinder. 90% of the water was added to an Erlenmeyer flask. Hanks' salts (1 bottle) were added to the water along with 5.96 g of HEPES and 0.35 g of sodium bicarbonate. The pH of the solution was adjusted with 1 N sodium hydroxide solution to pH 7.4. The remaining water was added and the receiver fluid was filtered through a 0.2μ filter (Millipore, Billerica, Mass.). Fifty (50) mg of gentamicin was added to the filtered receiver fluid and 400 mL of the receiver fluid was removed and replaced with 400 mL of PEG 400.
The receiver fluid was prepared by measuring 600 mL of nanopure H2O into a graduated cylinder. The H2O was filtered through a 0.2μ filter (Millipore, Billerica, Mass.). Fifty (50) mg of gentamicin was added to the filtered H2O and 400 mL of PEG 400 was added.
The prodrugs were made up in a solution of 45:4:1 PG:H2O:IPM. For this solution, the appropriate amount of drug was weighed into a glass silanized culture tube and IPM was added, the 50 μL of PG to coat the drug, then an additional 247 μL PG was added and the donor solution was vortexed again. Finally 26 μL of water was added. The gel formulation resulted from the mixing of absolute ethanol, nanopure water, IPM, Carbopol® 980, 0.1 N sodium hydroxide solution and the respective drug.
The gel formulation was comprised of absolute ethanol, nanopure water, IPM, Carbopol® 980, 0.1 sodium hydroxide solution and respective drug. The anhydrous gel was comprised of absolute ethanol, PEG monoethyl ether 550, Klucel® hydroxypropylcellulose, and respective drug.
Dermatomed skin harvested from abdominoplasty, stored at −20° C., was used for the experiments. A PermeGear flow-through (In-Line, Hellertown, Pa.) diffusion cell system was used for the skin permeation studies.
Diffusion cells were kept at 32° C. with a circulating water bath. Human epidermal skin was arranged in the diffusion cell with stratum corneum (upper layer of skin) facing the donor compartment. The permeation area of the skin was 0.95 cm^2. The data was collected from a human skin donor with three diffusion cells per treatment.
The receiver solution was HEPES-buffered Hanks' balanced salts with gentamicin containing 40% PEG 400 at a pH of 7.4 or 40% aqueous PEG 400 and flow rate was adjusted to 0.8 mL/h. Each cell was charged with 0.10 mL of the respective drug formulation (donor solution) or 50 μL of gel formulation which was rubbed into the skin for 15 sec with a Teflon coated rod. The formulation was applied to ensure complete coverage. […]. Diffusion cells were covered with a stopper or cap for the duration of the study.
Samples were collected into scintillation vials in 3 h increments for either 24, 30, or 42 h. All the samples were stored at 4° C. until extracted. An aliquot (0.5 mL) of the diffusion sample was placed into a silanized HPLC vial and 0.5 mL of acetonitrile was added to the sample, capped and vortexed.
At the end of the experiment, the skin tissue was removed from the diffusion cell, rinsed with nanopure water, and blotted dry with a paper towel. The skin was tape stripped twice using book tape (Scotch™, 3M, St. Paul, Minn.) to remove drug formulation adhering to the tissue surface.

[1] = Plasma stability of cannabidiol prodrugs (bioconversion to parent drug); assay type: in vitro ADME; details: Table 20, di-prodrug in plasma; for % mono-prodrug at time (h): mono-prodrug formed
Procedure: An approximated 1 mg/mL stock solution of each prodrug was prepared in 100 μL of ethanol and 900 μL of acetonitrile. Ten (10) μL of stock was spiked into 1 mL of plasma and vortexed. The samples were kept sealed in an amber vial and samples were obtained to analyze for bioconversion to parent drug.

[2] = Table 17, 90:8:2 PG:H2O:IPM donor solution, 40% aqueous PEG 400 receiver fluid, as applied compound (CBD or intact prodrug)
[3] = Table 17, 90:8:2 PG:H2O:IPM donor solution, 40% aqueous PEG 400 receiver fluid, prodrug applied, as total cannabidiol equivalents
[4] = Table 18, 90:8:2 PG:H2O:IPM donor solution, 40% aqueous PEG 400 receiver fluid, CBD from applied prodrug
[5] = Table 18, 90:8:2 PG:H2O:IPM donor solution, 40% aqueous PEG 400 receiver fluid, mono-prodrug from applied di-prodrug
[6] = Table 18, 90:8:2 PG:H2O:IPM donor solution, 40% aqueous PEG 400 receiver fluid, prodrug applied, as total cannabidiol equivalents

## C=C(C)[C@@H]1CCC(C)=C[C@H]1c1c(OC(C)=O)cc(CCCCC)cc1OC(C)=O [ALL00142, CBD Diacetate]
Human abdominal skin; [2]
  30 h skin conc: 5.5 ± 0.3 µmol/g
Human abdominal skin; [3]
  30 h skin conc: 5.5 ± 0.3 µmol/g
Human abdominal skin; in donor solution
  detected in the skin as: only as intact prodrug
  permeated through the skin as: did not permeate through the skin or was below detection in the receiver samples
  total skin concentrations compared to cannabidiol: not higher
[1]; 1 h
  % mono-prodrug at time (h): 0%
  % Di-prodrug at time (h): 98%
[1]; 3 h
  % mono-prodrug at time (h): 0%
  % Di-prodrug at time (h): 90%
[1]; 24 h
  % mono-prodrug at time (h): 0%
  % Di-prodrug at time (h): 10%
[1]; 0 h
  % Di-prodrug at time (h): 100%

## C=C(C)[C@@H]1CCC(C)=C[C@H]1c1c(OC(=O)OC)cc(CCCCC)cc1OC(=O)OC [ALL00143, CBD Bis(Methyl Carbonate)]
Human abdominal skin; Table 17, 90:8:2 PG:H2O:IPM donor solution, 40% aqueous PEG 400 receiver fluid, CBD from applied prodrug
  30 h skin conc: 0.5 ± 0.0 µmol/g
Human abdominal skin; [2]
  30 h skin conc: 5.8 ± 3.0 µmol/g
Human abdominal skin; [3]
  30 h skin conc: 6.0 ± 3.2 µmol/g
Human abdominal skin; in donor solution
  detected in the skin as: prodrug and trace amounts of cannabidiol
  permeated through the skin as: did not permeate through the skin or was below detection in the receiver samples
  total skin concentrations compared to cannabidiol: not higher
[1]; 1 h
  % mono-prodrug at time (h): 0%
  % Di-prodrug at time (h): 82%
[1]; 3 h
  % mono-prodrug at time (h): 0%
  % Di-prodrug at time (h): 76%
[1]; 24 h
  % mono-prodrug at time (h): 0%
  % Di-prodrug at time (h): 65%
[1]; 0 h
  % Di-prodrug at time (h): 100%

## C=C(C)[C@@H]1CCC(C)=C[C@H]1c1c(OC=O)cc(CCCCC)cc1OC=O [ALL00145, CBD Diformate]
Human abdominal skin; [4]
  30 h cumulative amt: 17.2 ± 4.5 nmol
  30 h skin conc: 8.8 ± 7.0 µmol/g
  Flux: 1.4 ± 0.1 nmol/cm^2/h
  Lag time: 17.4 ± 3.3 h
Human abdominal skin; Table 18, 90:8:2 PG:H2O:IPM donor solution, 40% aqueous PEG 400 receiver fluid, as applied compound (CBD or intact prodrug)
  30 h skin conc: 3.8 ± 2.1 µmol/g
Human abdominal skin; [5]
  30 h cumulative amt: 17.5 ± 6.1 nmol
  30 h skin conc: 23.5 ± 19.3 µmol/g
  Flux: 1.5 ± 0.6 nmol/cm^2/h
  Lag time: 19.0 ± 1.9 h
Human abdominal skin; [6]
  30 h cumulative amt: 34.7 ± 7.0 nmol
  30 h skin conc: 36.1 ± 28.2 µmol/g
  Flux: 2.9 ± 0.7 nmol/cm^2/h
  Lag time: 17.2 ± 2.5 h
Human abdominal skin; Table 18, 90:8:2 PG:H2O:IPM donor solution, 40% aqueous PEG 400 receiver fluid, total cannabidiol versus cannabidiol
  Flux enhancement: 0.35
Human abdominal skin; in donor solution
  detected in the skin as: prodrug, mono-substituted prodrug, ALL00146, and cannabidiol
  flux compared to cannabidiol: did not increase the flux
  lag time compared to cannabidiol: wasn't decreased
  share permeated through the skin as cannabidiol: approximately 50%
  share permeated through the skin as mono-substituted prodrug: approximately 50%
  total skin concentrations compared to cannabidiol: higher
[1]; 0 h
  % mono-prodrug at time (h): 40%
  % Di-prodrug at time (h): 60%
[1]; 0.5 h
  % mono-prodrug at time (h): 44%
  % Di-prodrug at time (h): 45%
[1]; 22 h
  % mono-prodrug at time (h): 23%
  % Di-prodrug at time (h): 37%
[1]; 24 h
  % mono-prodrug at time (h): 11%
  % Di-prodrug at time (h): 13%
